Where two headings read alike, the source gives them in different places.
Columns and labels:
[1] = target: T1, HCV polymerase 1A (Δ21 NS5B, H77) (Hepatitis C virus genotype 1a, UniProt P27958); assay: biochemical
T1 construct: 20 to 50 nM Δ21 NS5B
Outline: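 Radiometric assay with Δ21 NS5B (H77): 20 μM CTP, 20 μM ATP, 1 μM ^3H-UTP, 5 nM template RNA, 2–4 h at room temperature. RNA precipitated with spermine, filter-captured and counted. IC50 from non-linear fit of retained cpm vs inhibitor concentration (tight-binding equation).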

[2] = target: T2, HCV polymerase 1B (Δ21 NS5B, BK) (Hepatitis C virus genotype 1b, UniProt P26663); assay: biochemical
T2 construct: 20 to 50 nM Δ21 NS5B
T2 sequence (P26663 2420-2989, stated change not applied): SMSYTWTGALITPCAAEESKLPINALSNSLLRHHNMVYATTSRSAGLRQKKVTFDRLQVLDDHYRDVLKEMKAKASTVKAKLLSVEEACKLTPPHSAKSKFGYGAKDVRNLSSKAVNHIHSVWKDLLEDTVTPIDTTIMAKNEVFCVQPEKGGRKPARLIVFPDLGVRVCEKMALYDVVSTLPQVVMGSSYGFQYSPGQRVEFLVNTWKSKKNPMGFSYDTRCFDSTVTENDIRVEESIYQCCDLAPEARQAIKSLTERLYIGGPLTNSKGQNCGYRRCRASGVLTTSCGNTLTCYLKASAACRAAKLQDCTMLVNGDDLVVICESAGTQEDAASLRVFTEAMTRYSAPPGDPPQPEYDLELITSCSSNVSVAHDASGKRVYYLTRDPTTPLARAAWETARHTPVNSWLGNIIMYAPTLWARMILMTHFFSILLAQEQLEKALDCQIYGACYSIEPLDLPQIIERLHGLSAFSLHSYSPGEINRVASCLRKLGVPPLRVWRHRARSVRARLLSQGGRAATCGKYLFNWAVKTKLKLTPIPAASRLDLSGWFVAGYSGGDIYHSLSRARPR
Outline: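 Δ21 NS5B (genotype 1b, BK […]) preincubated 15 min RT with inhibitor, 2 mM MnCl2, pH 7.4, 60–125 μM GTP; started with 20 μM CTP/ATP, 1 μM 3H-UTP, 5 nM template RNA, run 2–4 h RT. Spermine-precipitated RNA filter-captured, scintillation counted; IC50 from tight-binding (Morrison) fit.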

[3] = test system: genotype 1a-H77 subgenomic replicon cell line; assay: microbe, parasite or virus in culture; type: cell-based, HCV; details: read-out: EC50 1a
[4] = test system: genotype 1b-Con1 subgenomic replicon cell line; assay: microbe, parasite or virus in culture; type: cell-based, HCV; details: read-out: EC50 1b

T1 sequence (P27958 2421-2990, stated change not applied): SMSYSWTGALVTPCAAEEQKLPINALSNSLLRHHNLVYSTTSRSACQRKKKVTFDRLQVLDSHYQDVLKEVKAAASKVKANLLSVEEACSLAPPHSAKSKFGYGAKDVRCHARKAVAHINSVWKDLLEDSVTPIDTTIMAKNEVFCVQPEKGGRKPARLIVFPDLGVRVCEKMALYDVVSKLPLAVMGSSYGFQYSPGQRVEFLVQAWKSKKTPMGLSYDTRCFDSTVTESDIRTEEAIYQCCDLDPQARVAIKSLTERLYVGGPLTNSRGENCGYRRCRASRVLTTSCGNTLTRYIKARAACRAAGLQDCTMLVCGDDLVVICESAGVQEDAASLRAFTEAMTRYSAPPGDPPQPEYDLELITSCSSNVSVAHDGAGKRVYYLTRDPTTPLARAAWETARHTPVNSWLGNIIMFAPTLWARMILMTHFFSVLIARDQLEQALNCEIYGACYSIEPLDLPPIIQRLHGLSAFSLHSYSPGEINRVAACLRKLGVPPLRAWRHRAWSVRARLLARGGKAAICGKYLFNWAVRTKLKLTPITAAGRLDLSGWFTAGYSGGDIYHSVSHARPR

| SMILES | IC50 ([1]; IC50 1a) [µM] | IC50 [2] [µM] | EC50 ([3]; Hepatitis C virus) [µM] | EC50 ([4]; Hepatitis C virus) [µM] | IC50 ([1]; read-out: IC50 1a) [µM] | IC50 ([2]; HCV polymerase 1b, read-out: IC50 1b) [µM] | EC50 ([3]; genotype 1a-H77 replicon, luciferase reporter) [µM] | EC50 ([4]; genotype 1b-Con1 replicon, luciferase reporter) [µM] |
| --- | --- | --- | --- | --- | --- | --- | --- | --- |
| COc1c(C(=O)Nc2scc(CNS(C)(=O)=O)c2S(N)(=O)=O)cc(N2CCC(=O)NC2=O)cc1C(C)(C)C [IA-L3-1.90, 3-tert-butyl-5-(2,4-dioxotetrahydropyrimidin-1(2H)-yl)-2-methoxy-N-(4-(methylsulfonamidemethyl)-3-sulfamoylthiophen-2-yl)benzamide] | 0.01 to 0.1 | 0.01 to 0.1 | > 1 | 0.1 to 1 |  |  |  |  |
| CC(C)(C)c1cc(N2CCC(=O)NC2=O)cc(C(=O)Nc2cc(CNS(C)(=O)=O)cs2)c1O [IA-L3-1.91, 3-tert-butyl-5-(2,4-dioxotetrahydropyrimidin-1(2H)-yl)-2-hydroxy-N-(4-(methylsulfonamidomethyl)thiophen-2-yl)benzamide] | 0.01 to 0.1 | 0.01 to 0.1 | 0.1 to 1 | 0.1 to 1 |  |  |  |  |
| COc1c(C(=O)Nc2cc(CNS(C)(=O)=O)cs2)cc(N2CCC(=O)NC2=O)cc1C(C)(C)C [IA-L3-1.94, 3-tert-butyl-5-(2,4-dioxotetrahydropyrimidin-1(2H)-yl)-2-methoxy-N-(4-(methylsulfonamidomethyl)thiophen-2-yl)benzamide] | 0.1 to 1 | 0.1 to 1 | > 1 | 0.1 to 1 |  |  |  |  |
| CN(Cc1csc(NC(=O)c2cc(N3CCC(=O)NC3=O)cc(C(C)(C)C)c2O)c1)S(C)(=O)=O [IA-L3-1.95, 3-tert-butyl-5-(2,4-dioxotetrahydropyrimidin-1(2H)-yl)-2-hydroxy-N-(4-((N-methylmethylsulfonamido)methyl)thiophen-2-yl)benzamide] | 0.1 to 1 | 0.01 to 0.1 | > 1 | > 1 |  |  |  |  |
| COc1c(C(=O)Nc2cc(CN(C(=O)OC(C)(C)C)S(C)(=O)=O)cs2)cc(N2CCC(=O)NC2=O)cc1C(C)(C)C [IA-L3-1.96, tert-butyl (5-(3-tert-butyl-5-(2,4-dioxotetrahydropyrimidin-1(2H)-yl)-2-methoxybenzamido)thiophen-3-yl)methyl(methylsulfonyl)carbamate] | 0.1 to 1 | > 1 | 0.1 to 1 | > 1 |  |  |  |  |
| COc1c(C(=O)Nc2cc(CN(C)S(C)(=O)=O)cs2)cc(N2CCC(=O)NC2=O)cc1C(C)(C)C [IA-L3-1.97, 3-tert-butyl-5-(2,4-dioxotetrahydropyrimidin-1(2H)-yl)-2-methoxy-N-(4-((N-methylmethylsulfonamido)methyl)thiophen-2-yl)benzamide] | > 1 | > 1 | > 1 | > 1 |  |  |  |  |
| CC(C)(C)OC(=O)N(Cc1csc(NC(=O)c2cc(N3CCC(=O)NC3=O)cc(C(C)(C)C)c2O)c1)S(C)(=O)=O [IA-L3-1.98, tert-butyl (5-(3-tert-butyl-5-(2,4-dioxotetrahydropyrimidin-1(2H)-yl)-2-hydroxybenzamido)thiophen-3-yl)methyl(methylsulfonyl)carbamate] | > 1 | 0.1 to 1 | > 1 | 0.1 to 1 |  |  |  |  |
| COc1c(C(=O)N[C@H]2CC[C@H](NS(C)(=O)=O)CC2)cc(N2CCC(=O)NC2=O)cc1C(C)(C)C [IA-L3-1.103, 3-tert-butyl-5-(2,4-dioxotetrahydropyrimidin-1(2H)-yl)-2-methoxy-N-((1r,4r)-4-(methylsulfon amido)cyclohexyl)benzamide] |  |  |  |  | 0.1 to 1 | > 1 | > 1 | > 1 |
| CC(C)(C)c1cc(N2CCC(=O)NC2=O)cc(C(=O)Nc2nccs2)c1O [IA-L3-1.104, 3-tert-butyl-5-(2,4-dioxotetrahydropyrimidin-1(2H)-yl)-2-hydroxy-N-(thiazol-2-yl)benzamide] | > 1 | 0.1 to 1 | > 1 | > 1 |  |  |  |  |
| CC(C)(C)c1cc(C(=O)Nc2ccc(NS(C)(=O)=O)cc2)cc(N2CCC(=O)NC2=O)c1 [IA-L3-1.105, 3-tert-butyl-5-(2,4-dioxotetrahydropyrimidin-1(2H)-yl)-N-(4-(methylsulfonamido)phenyl)benzamide] | 0.1 to 1 | 0.01 to 0.1 | > 1 | > 1 |  |  |  |  |
| COc1c(C(=O)Nc2ccc(N)cc2)cc(N2CCC(=O)NC2=O)cc1C(C)(C)C [IA-L3-1.107, N-(4-aminophenyl)-3-tert-butyl-5-(2,4-dioxotetrahydropyrimidin-1(2H)-yl)-2-methoxy benzamide] | > 1 | > 1 | > 1 | > 1 |  |  |  |  |
| CCc1cc(N2CCC(=O)NC2=O)cc(C(=O)Nc2ccc(NS(C)(=O)=O)cc2)c1OC [IA-L3-1.112, 5-(2,4-dioxotetrahydropyrimidin-1(2H)-yl)-3-ethyl-2-methoxy-N-(4-(methylsulfonamido)phenyl)benzamide] | 0.1 to 1 | 0.1 to 1 | > 1 | 0.1 to 1 |  |  |  |  |
| CCc1cc(N2CCC(=O)NC2=O)cc(C(=O)Nc2ccc(NS(C)(=O)=O)cc2)c1O [IA-L3-1.113, 5-(2,4-dioxotetrahydropyrimidin-1(2H)-yl)-3-ethyl-2-hydroxy-N-(4-(methylsulfonamido)phenyl)benzamide] | > 1 | > 1 | > 1 | > 1 |  |  |  |  |
| CCNC(=O)CN1C(=O)CCN(c2cc(C(=O)Nc3ccc(N(CC(=O)NCC)S(C)(=O)=O)cc3)c(OC)c(C(C)(C)C)c2)C1=O [IA-L3-1.115, 3-tert-butyl-5-(3-(2-(ethylamino)-2-oxoethyl)-2,4-dioxotetrahydropyrimidin-1(2H)-yl)-N-(4-(N-(2-(ethylamino)-2-oxoethyl)methylsulfonamido)phenyl)-2-methoxybenzamide] | > 1 | > 1 | > 1 | > 1 |  |  |  |  |
| COc1cc(NS(C)(=O)=O)ccc1NC(=O)c1cc(N2CCC(=O)NC2=O)cc(C(C)(C)C)c1O [IA-L3-1.119, 3-tert-butyl-5-(2,4-dioxotetrahydropyrimidin-1(2H)-yl)-2-hydroxy-N-(2-methoxy-4-(methylsulfonamido)phenyl)benzamide] | 0.01 to 0.1 | < 0.01 | 0.1 to 1 | 0.01 to 0.1 |  |  |  |  |
| COc1c(C(=O)Nc2cccc(CNS(C)(=O)=O)c2)cc(N2CCC(=O)NC2=O)cc1C(C)(C)C [IA-L3-1.120, 3-tert-butyl-5-(2,4-dioxotetrahydropyrimidin-1(2H)-yl)-2-methoxy-N-(3-(methylsulfonamidomethyl)phenyl)benzamide] | 0.1 to 1 | 0.1 to 1 | > 1 | > 1 |  |  |  |  |
| COc1ccc(OC)c(S(=O)(=O)Nc2ccc(NC(=O)c3cc(N4CCC(=O)NC4=O)cc(C(C)(C)C)c3OC)cc2)c1 [IA-L3-1.121, 3-tert-butyl-N-(4-(2,5-dimethoxyphenylsulfonamido)phenyl)-5-(2,4-dioxotetrahydro-pyrimidin-1(2H)-yl)-2-methoxybenzamide] | 0.1 to 1 | 0.1 to 1 | > 1 | 0.1 to 1 |  |  |  |  |
| CCCC(=O)OCN(c1ccc(NC(=O)c2cc(N3CCC(=O)NC3=O)cc(C(C)(C)C)c2OC)cc1)S(C)(=O)=O [IA-L3-1.123, (N-(4-(3-tert-butyl-5-(2,4-dioxotetrahydropyrimidin-1(2H)-yl)-2-methoxybenzamido)phenyl)methylsulfonamido)methyl butyrate] | > 1 | > 1 | 0.1 to 1 | 0.01 to 0.1 |  |  |  |  |
| CC(C)(C)c1cc(N2CCC(=O)NC2=O)cc(C(=O)Nc2ccc3ncccc3c2)c1O [IA-L3-2.1, 3-tert-butyl-5-(2,4-dioxotetrahydropyrimidin-1(2H)-yl)-2-hydroxy-N-(quinolin-6-yl)benzamide] | > 1 | 0.1 to 1 | > 1 | > 1 |  |  |  |  |
| COc1c(C(=O)Nc2ccc3c(c2)CC(=O)N3)cc(N2CCC(=O)NC2=O)cc1C(C)(C)C [IA-L3-2.2, 3-tert-butyl-5-(2,4-dioxotetrahydropyrimidin-1(2H)-yl)-2-methoxy-N-(2-oxoindolin-5-yl)benzamide] | 0.1 to 1 | 0.1 to 1 | > 1 | > 1 |  |  |  |  |
| COc1c(C(=O)Nc2ccc3c(c2)CCC(=O)N3)cc(N2CCC(=O)NC2=O)cc1C(C)(C)C [IA-L3-2.4, 3-tert-butyl-5-(2,4-dioxotetrahydropyrimidin-1(2H)-yl)-2-methoxy-N-(2-oxo-1,2,3,4-tetra hydroquinolin-6-yl)benzamide] | > 1 | > 1 | > 1 | > 1 |  |  |  |  |
| CC(C)(C)c1cc(N2CCC(=O)NC2=O)cc(C(=O)Nc2ccc3c(c2)CS(=O)(=O)C3)c1O [IA-L3-2.5, 3-tert-butyl-N-(2,2-dioxo-1,3-dihydrobenzo[c]thiophen-5-yl)-5-(2,4-dioxotetrahydropyrimidin-1(2H)-yl)-2-hydroxybenzamide] | > 1 | 0.1 to 1 | > 1 | > 1 |  |  |  |  |
| CC(C)(C)c1cc(NC(=O)c2ccc(NS(C)(=O)=O)cc2)cc(N2CCC(=O)NC2=O)c1 [IA-L4-1.1, N-(3-tert-butyl-5-(2,4-dioxotetrahydropyrimidin-1(2H)-yl)phenyl)-4-(methylsulfonamido) benzamide] | 0.1 to 1 | 0.1 to 1 | > 1 | > 1 |  |  |  |  |
